Read-outs that look alike come from different tables or passages of the source. Non-standard residues stand in square brackets, D forms with d. Residues, ends and D or L forms follow the SMILES beside them. Bpa = N[CH](Cc1ccc(C(=O)c2ccccc2)cc1)C(=O)O; 2Nal = N[CH](Cc1ccc2ccccc2c1)C(=O)O; Aib = CC(C)(N)C(=O)O

For test [1] the following is noted: cited from earlier work.
The conditions of test [2]: average over λex 224, 266, 280 nm.

As for `CC(NC(=O)C(C)(C)NC(=O)C(Cc1ccc(C(=O)c2ccccc2)cc1)NC(=O)C(C)(C)NC(=O)C(C)NC(=O)C(C)(C)NC(=O)C(Cc1ccc2ccccc2c1)NC(=O)C(C)(C)N)C(=O)O` (centres unmarked) [Compound 1B] (H-[Aib][2Nal][Aib]A[Aib][Bpa][Aib]A-OH; configuration not given here), the kSSET in test [1] (λex 224 nm) was 2.44e+08 s⁻¹; in test [1] (λex 266 nm), 1.8e+08 s⁻¹; in test [1] (λex 280 nm), 1.36e+08 s⁻¹.
As to `CC(NC(=O)C(C)(C)NC(=O)C(Cc1ccc(C(=O)c2ccccc2)cc1)NC(=O)C(C)(C)NC(=O)C(Cc1ccc2ccccc2c1)NC(=O)C(C)(C)NC(=O)C(C)NC(=O)C(C)(C)N)C(=O)O` (single isomer, unassigned) [Compound 2B], in test [2], the “kSSET (Average)” value was determined as 3.9e+07 s⁻¹. Moreover, the values for the kSSET in test [1] (λex 224 nm), in test [1] (λex 266 nm) and in test [1] (λex 280 nm) were 3.1e+07 s⁻¹, 3.9e+07 s⁻¹ and 4.7e+07 s⁻¹, respectively.
For `CC1NC(=O)C(C)(C)NC(=O)C(Cc2ccc(C(=O)c3ccccc3)cc2)NC(=O)C(C)(C)NC(=O)C(C)NC(=O)C(C)(C)NC(=O)C(Cc2ccc3ccccc3c2)NC(=O)C(C)(C)NC1=O` (centres unmarked) [Compound 1A] (cyclo([Aib][2Nal][Aib]A[Aib][Bpa][Aib]A); configuration not given here), the “kSSET (Average)” value in test [2] was found to be 3.67e+07 s⁻¹. The kSSET was 3.8e+07 s⁻¹ in test [1] (λex 224 nm), 3.6e+07 s⁻¹ in test [1] (λex 266 nm) and 3.6e+07 s⁻¹ in test [1] (λex 280 nm).

The values are drawn from US9662388B2, “Methods and systems for treating cell proliferation disorders using plasmonics enhanced photospectral therapy (PEPST) and exciton-plasmon enhanced phototherapy (EPEP)” (Duke University, priority 2008, dated 2017).
